According to patent US11014911B2, “CDK2 inhibitors” (Pfizer Inc., priority 2019, dated 2021):

Target: CDK2/Cyclin E1 full length (Homo sapiens (Human), UniProt P24941)
Assay: CDK2/Cyclin E1 full length mobility shift assay
Type: biochemical
Experimental: Cdk2/Cyclin E1 Full Length Mobility Shift Assay
Wild-type CDK2/wild-type full length Cyclin E1 enzyme complex was produced in-house (baculoviral expression, LJIC-2080/LJIC-2103) and phosphorylated by CDK7/Cyclin H1/Matl enzyme complex with CDK2:CDK7 ratio of 50:1 (concentration mg/mL) in the presence of 10 mM MgCl2 and 5 mM ATP at room temperature for one hour. […] The assay was initiated with the addition of ATP, following a fifteen minutes pre-incubation of enzyme and inhibitor at room temperature in the reaction mixture. The reaction was stopped after 45 minutes at room temperature by the addition of 50 μL of 80 mM EDTA.

Which Ki does the source give for `COc1cnc(CC(=O)Nc2cc([C@H]3CC[C@@H](OC(=O)NC(C)(C)C)C3)[nH]n2)s1` [Example 311, (1R,3S)-3-(3-{[(5-methoxy-1,3-thiazol-2-yl)acetyl]amino}-1H-pyrazol-5-yl)cyclopentyl tert-butylcarbamate] here?
Its Ki is 0.36 nM.

With `CCC1(NC(=O)O[C@@H]2CC[C@H](c3cc(NC(=O)Cc4cnc(OC)cn4)n[nH]3)C2)CC1` [Example 450, (1R,3S)-3-(3-{[(5-methoxypyrazin-2-yl)acetyl]amino}-1H-pyrazol-5-yl)cyclopentyl (1-ethylcyclopropyl)carbamate] as the molecule, how does the Ki read?
The Ki was 0.38 nM.

Which Ki does the source give for `CC[C@H](C)NC(=O)O[C@@H]1CC[C@H](c2cc(NC(=O)Cc3cc(OC)ncc3OC)n[nH]2)C1` [Example 358, (1R,3S)-3-(3-{[(2,5-dimethoxypyridin-4-yl)acetyl]amino}-1H-pyrazol-5-yl)cyclopentyl (2S)-butan-2-ylcarbamate] here?
Its Ki is 1.65 nM.

`CCC(CO)CNC(=O)O[C@@H]1CC[C@H](c2cc(NC(=O)Cc3cnc(C)o3)n[nH]2)C1` (single isomer, unassigned) [Example 527] was tested. Which Ki did it give?
The Ki was 2.63 nM.

`CC1(NC(=O)O[C@@H]2CC[C@H](c3cc(NC(=O)Cc4ccc5ncccc5n4)n[nH]3)C2)CC1` [Example 132] was tested. Which Ki did it give?
The Ki was 0.19 nM.

With `CC[C@H](C)NC(=O)O[C@@H]1CC[C@H](c2cc(NC(=O)Cc3c(C)noc3C)n[nH]2)C1` [Example 340, (1R,3S)-3-(3-{[(3,5-dimethyl-1,2-oxazol-4-yl)acetyl]amino}-1H-pyrazol-5-yl)cyclopentyl (2S)-butan-2-ylcarbamate] as the molecule, how does the Ki read?
Its Ki is 2.24 nM.

Which Ki does the source give for `Cc1cnc(CC(=O)Nc2cc([C@H]3CC[C@@H](OC(=O)N(C)C(C)C)C3)[nH]n2)o1` [Example 290, (1R,3S)-3-(3-{[(5-methyl-1,3-oxazol-2-yl)acetyl]amino}-1H-pyrazol-5-yl)cyclopentyl methyl(propan-2-yl)carbamate] here?
The Ki was 1.45 nM.

How did the Ki turn out when `CC1(NC(=O)O[C@@H]2CC[C@H](c3cc(NC(=O)Cc4cnc(C(F)(F)F)cn4)n[nH]3)C2)CC1` [Example 130] was run?
Its Ki is 0.25 nM.

With `CC[C@H](C)NC(=O)O[C@@H]1CC[C@H](c2cc(NC(=O)Cc3nnc(C)o3)n[nH]2)C1` [Example 334, (1R,3S)-3-(3-{[(5-methyl-1,3,4-oxadiazol-2-yl)acetyl]amino}-1H-pyrazol-5-yl)cyclopentyl (2S)-butan-2-ylcarbamate] as the molecule, how does the Ki read?
Its Ki is 1.6 nM.

`CCC1(NC(=O)O[C@@H]2CC[C@H](c3cc(NC(=O)Cc4cnc(C)cn4)n[nH]3)C2)CC1` [Example 449, (1R,3S)-3-(3-{[(5-methylpyrazin-2-yl)acetyl]amino}-1H-pyrazol-5-yl)cyclopentyl (1-ethylcyclopropyl)carbamate] was tested. Which Ki did it give?
The Ki was 0.39 nM.

For `CC(C)(O)CNC(=O)O[C@@H]1CC[C@H](c2cc(NC(=O)Cc3cc(F)cc(F)c3)n[nH]2)C1` [Example 574, (1R,3S)-3-(3-{[(3,5-difluorophenyl)acetyl]amino}-1H-pyrazol-5-yl)cyclopentyl (2-hydroxy-2-methylpropyl)carbamate], which Ki is on record?
Its Ki is 4.07 nM.

Which Ki does the source give for `Cc1nc(CC(=O)Nc2cc([C@H]3CC[C@@H](OC(=O)NC(C)C)C3)[nH]n2)ccc1Cl` [Example 282, (1R,3S)-3-(3-{[(5-chloro-6-methylpyridin-2-yl)acetyl]amino}-1H-pyrazol-5-yl)cyclopentyl propan-2-ylcarbamate] here?
The Ki was 2.34 nM.

Which Ki does the source give for `CC(C)NC(=O)O[C@@H]1CC[C@H](c2cc(NC(=O)Cc3ccn(C)n3)n[nH]2)C1` [Example 267, (1R,3S)-3-(3-{[(1-methyl-1H-pyrazol-3-yl)acetyl]amino}-1H-pyrazol-5-yl)cyclopentyl propan-2-ylcarbamate] here?
Its Ki is 3.02 nM.

For `CC(CC(F)F)NC(=O)O[C@@H]1CC[C@H](c2cc(NC(=O)Cc3cnn(C)c3)n[nH]2)C1` (single isomer, unassigned) [Example 387], which Ki is on record?
The Ki was 0.3 nM.

For `COc1cnc(CC(=O)Nc2cc([C@H]3CC[C@@H](OC(=O)NC4(C)CCOC4)C3)[nH]n2)cn1` (single isomer, unassigned) [Example 485], which Ki is on record?
Its Ki is 1.41 nM.

`CC1(NC(=O)O[C@@H]2CC[C@H](c3cc(NC(=O)Cc4ccc(C(F)(F)F)cn4)n[nH]3)C2)CC1` [Example 445, (1R,3S)-3-[3-({[5-(trifluoromethyl)pyridin-2-yl]acetyl}amino)-1H-pyrazol-5-yl]cyclopentyl (1-methylcyclopropyl)carbamate] was tested. Which Ki did it give?
Its Ki is 0.6 nM.

`CCCNC(=O)O[C@@H]1CC[C@H](c2cc(NC(=O)Cc3ccccc3S(C)(=N)=O)n[nH]2)C1` (single isomer, unassigned) [Example 202] was tested. Which Ki did it give?
Its Ki is 1.85 nM.

For `CC1(NC(=O)O[C@@H]2CC[C@H](c3cc(NC(=O)Cc4ccon4)n[nH]3)C2)CC1` [Example 419, (1R,3S)-3-{3-[(1,2-oxazol-3-ylacetyl)amino]-1H-pyrazol-5-yl}cyclopentyl (1-methylcyclopropyl)carbamate], which Ki is on record?
The Ki was 0.36 nM.

`C[C@H]1CCN1C(=O)O[C@@H]1CC[C@H](c2cc(NC(=O)c3cncn3C)n[nH]2)C1` [Example 585, (1R,3S)-3-(3-{[(1-methyl-1H-imidazol-5-yl)carbonyl]amino}-1H-pyrazol-5-yl)cyclopentyl (2S)-2-methylazetidine-1-carboxylate] was tested. Which Ki did it give?
The Ki was 2.57 nM.

`COc1cc(C(=O)Nc2cc([C@H]3CC[C@@H](OC(=O)NC4(C)CCOC4)C3)[nH]n2)n(C)n1` (single isomer, unassigned) [Example 480] was tested. Which Ki did it give?
The Ki was 2.01 nM.

For `Cc1cnc(CC(=O)Nc2cc([C@H]3CC[C@@H](OC(=O)NC(C)C)C3)[nH]n2)o1` [Example 271, (1R,3S)-3-(3-{[(5-methyl-1,3-oxazol-2-yl)acetyl]amino}-1H-pyrazol-5-yl)cyclopentyl propan-2-ylcarbamate], which Ki is on record?
Its Ki is 1.57 nM.

How did the Ki turn out when `COc1ccc(S(C)(=O)=O)c(CC(=O)Nc2cc([C@H]3CC[C@@H](OC(=O)NCCC(F)(F)F)C3)[nH]n2)c1` [Example 224, (1R,3S)-3-[3-({[5-methoxy-2-(methylsulfonyl)phenyl]acetyl}amino)-1H-pyrazol-5-yl]cyclopentyl (3,3,3-trifluoropropyl)carbamate] was run?
The Ki was 0.31 nM.

Which Ki does the source give for `CC[C@H](C)NC(=O)O[C@@H]1CC[C@H](c2cc(NC(=O)Cc3cn(C)nc3OC)n[nH]2)C1` [Example 351, (1R,3S)-3-(3-{[(3-methoxy-1-methyl-1H-pyrazol-4-yl)acetyl]amino}-1H-pyrazol-5-yl)cyclopentyl (2S)-butan-2-ylcarbamate] here?
The Ki was 2.77 nM.

`CC[C@H](C)NC(=O)O[C@@H]1CC[C@H](c2cc(NC(=O)Cc3cn(C(C)C)nn3)n[nH]2)C1` [Example 350, (1R,3S)-3-[3-({[1-(propan-2-yl)-1H-1,2,3-triazol-4-yl]acetyl}amino)-1H-pyrazol-5-yl]cyclopentyl (2S)-butan-2-ylcarbamate] was tested. Which Ki did it give?
Its Ki is 3.45 nM.

How did the Ki turn out when `COc1cnc(CC(=O)Nc2cc([C@H]3CC[C@@H](OC(=O)N4CCC4(C)C)C3)[nH]n2)cn1` [Example 602, (1R,3S)-3-(3-{[(5-methoxypyrazin-2-yl)acetyl]amino}-1H-pyrazol-5-yl)cyclopentyl 2,2-dimethylazetidine-1-carboxylate] was run?
The Ki was 0.3 nM.

For `CCC(CO)CNC(=O)O[C@@H]1CC[C@H](c2cc(NC(=O)Cc3cc(F)cc(F)c3)n[nH]2)C1` (single isomer, unassigned) [Example 536], which Ki is on record?
The Ki was 2.07 nM.

`CC[C@H](C)NC(=O)O[C@@H]1CC[C@H](c2cc(NC(=O)Cc3ccccc3S(C)(=N)=O)n[nH]2)C1` (single isomer, unassigned) [Example 369] was tested. Which Ki did it give?
Its Ki is 0.84 nM.
